The source of these data is article PMC7238120, “Strong and Selective Inhibitory Effects of the Biflavonoid Selamariscina A against CYP2C8 and CYP2C9 Enzyme Activities in Human Liver Microsomes” (Pharmaceutics, 2020).

By IC50 is commonly meant the concentration that inhibits the measured activity by half. A word on the Ki: it is a measure of affinity in units of concentration, obtained from inhibition or displacement. A word on the inhibition: it is the drop in the measured response relative to a control, in per cent.

The target of one data set is T1, CYP2C19 (Homo sapiens, UniProt P33261).
T1 construct: incubation mixtures containing pooled human liver microsomes (HLMs, XTreme 200, XenoTech); tissue XenoTech XTreme 200; host or cells: pooled human liver microsomes
Description: Inhibition of CYP2C19 (omeprazole) activity in pooled human liver microsomes. To be noted: substrate omeprazole 20 µM; pooled HLMs; read-out: IC50, P450 2C19. Format: in vitro ADME. The method, then:
(§1) The inhibitory potential of the five biflavonoids on the metabolism of nine P450 probe substrates was evaluated using previously developed methods with minor modifications. Biflavonoids were dissolved in methanol. The final concentration of methanol in the incubation mixture was 1.0% (v/v). We used these P450 probe substrates: phenacetin for CYP1A2, coumarin for CYP2A6, bupropion for CYP2B6, amodiaquine for CYP2C8, diclofenac for CYP2C9, omeprazole for CYP2C19, dextromethorphan for CYP2D6, chlorzoxazone for CYP2E1 and midazolam for CYP3A (Table 1). The incubation mixtures containing pooled human liver microsomes (HLMs, XTreme 200, XenoTech), P450 probe substrates, and inhibitor (0~20 µM) were pre-incubated at 37 °C for 5 min. The concentration range of the inhibitor varied (0, 0.002, 0.005, 0.02, 0.05, and 0.2 µM for CYP2C8; 0, 0.02, 0.05, 0.2, 0.5, and 2 µM for CYP2C9; 0, 0.5, 2, 5, 10, and 20 µM for other P450 isoforms). After pre-incubation, a reduced nicotinamide adenine dinucleotide phosphate (NADPH) generation system containing 1 unit/ml G6PDH, 1.3 mM β- nicotinamide adenine dinucleotide phosphate (β- NADP^+), 3.3 mM MgCl2, and 3.3 mM G6P was added to initiate a reaction, and further incubated for 10 min at 37 °C. The reaction was stopped by adding 50 μL of ice-cold acetonitrile containing 7 nM trimipramine (internal standard, IS). After centrifugation at 18,000 g (5 min, 4 °C), aliquots of supernatants were analyzed by LC–MS/MS (Shimadzu LCMS 8060 system, Shimadzu, Kyoto, Japan). All microsomal incubations were conducted in triplicate.
(§2) All metabolites and the IS were separated on a Kinetex XB-C18 column (100 × 2.10 mm, 2.6 μm, 100 Å; Phenomenex, Torrance, CA, USA) and analyzed using a Shimadzu LCMS 8060 triple-quadrupole mass spectrometer coupled with a Nexera X2 ultra high-performance liquid chromatography system (Shimadzu, Kyoto, Japan) equipped with an electrospray ionization interface. The mobile phase consisted of 0.1% formic acid in water (A) and 0.1% formic acid in acetonitrile (B). The elution condition was set as 8% B (0–0.5 min), 8%→60% B (0.5–5 min), 60% B (5–6 min), 60%→8% B (6–6.1 min) and 8% B (6.1–9 min) for the analysis of metabolites of P450 probe substrates and set as 0%→40% B (0–1 min), 40%→50% B (1–5 min), 50%→0% B (5–5.1 min), and 0% B (5.1–8 min) for the analysis of metabolites of UGT probe substrates. The flow rate was 0.2 mL/min. Electrospray ionization was performed in positive-ion mode at 4000 V or in negative-ion mode at −3500 V. The optimum operating conditions were determined as follows: vaporizer temperature, 300 °C; capillary temperature, 350 °C; collision gas (argon) pressure, 1.5 mTorr. Quantitation was conducted in selected reaction monitoring (SRM) modes with the precursor-to-product ion transition for each metabolite (Table 1 and Table 2).
We analyzed the data with Shimadzu LabSolution LC–MS software. The IC50 values were calculated by WinNonlin software (Pharsight, Mountain View, CA, USA). The type of inhibition and the apparent kinetic parameters for inhibitory activity (Ki) were determined by following several criteria: visual inspection of Dixon plots, Lineweaver–Burk double reciprocal plots, and secondary plots of Lineweaver–Burk plots versus biflavonoid concentrations, the size of the sum of squares of the residuals, Akaike Information Criteria values, the S.E. and 95% confidence interval of the parameter estimates from the nonlinear regression analysis using the WinNonlin software. The models tested included competitive, competitive partial, noncompetitive, noncompetitive partial, uncompetitive, uncompetitive partial, and mixed-type inhibition.
(Liver microsomes are a subcellular fraction often used to study metabolism.)

For the next data set, the target named is T2, CYP2C8 (Homo sapiens, UniProt P10632).
T2 sequence (P10632 1-490): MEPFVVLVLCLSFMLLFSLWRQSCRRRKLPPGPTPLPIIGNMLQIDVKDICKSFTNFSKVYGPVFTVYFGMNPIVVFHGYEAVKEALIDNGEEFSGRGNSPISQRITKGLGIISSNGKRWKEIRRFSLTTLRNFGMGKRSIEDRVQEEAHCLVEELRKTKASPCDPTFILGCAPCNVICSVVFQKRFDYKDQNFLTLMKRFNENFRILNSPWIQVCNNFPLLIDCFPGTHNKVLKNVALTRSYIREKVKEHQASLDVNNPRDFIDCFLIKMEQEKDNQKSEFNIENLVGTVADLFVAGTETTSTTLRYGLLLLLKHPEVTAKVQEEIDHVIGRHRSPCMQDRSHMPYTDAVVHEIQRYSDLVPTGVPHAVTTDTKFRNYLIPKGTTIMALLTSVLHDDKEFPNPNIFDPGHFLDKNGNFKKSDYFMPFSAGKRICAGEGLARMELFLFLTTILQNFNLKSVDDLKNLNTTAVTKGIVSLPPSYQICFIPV
Description: Inhibition of CYP2C8-catalyzed amodiaquine N-deethylation in pooled human liver microsomes. It is filed as in vitro ADME. More on the design: incubation mixtures containing pooled human liver microsomes (HLMs, XTreme 200, XenoTech); tissue XenoTech XTreme 200; host or cells: pooled human liver microsomes. Conditions: for Ki: amodiaquine 0.1, 0.4, 1 µM, average ± standard error, triplicate; for IC50: substrate amodiaquine 1 µM, read-out: IC50, P450 2C8; for IC50 / inhibition at 10 min, 0.5 µM: pooled HLMs 0.25 mg/mL; for inhibition at 10 min, 0.5 µM: inhibitor 0.5 μM. The method, then:
as §1
The other conditions were the same as in the cytochrome P450 inhibition study.
We used HLMs to determine the mechanisms and constants (Ki values) for selamariscina A inhibition of CYP1A2, CYP2B6, CYP2C8, CYP2C9 and CYP3A. The selamariscina A (0~50 μM) was added into the reaction mixtures, each of which contained concentrations of phenacetin (20, 50, and 100 μM), bupropion (20, 50, and 100 μM), amodiaquine (0.1, 0.4, and 1 μM), rosiglitazone (2, 5, and 10 μM), diclofenac (1, 4, and 10 μM), tolbutamide (50, 100, and 200 μM), and midazolam (0.5, 2, and 5 μM). The substrates were used at concentrations approximately near to their respective Km values. The concentration range of selamariscina A varied (0, 0.002, 0.005, 0.02, 0.05, and 0.2 μM for CYP2C8; 0, […], 0.02, 0.05, 0.2, and 0.5 μM for CYP2C9; 0, 0.2, 0.5, 2, 5, and 20 µM for CYP3A; 0, 0.5, 2, 5, 20, and 50 μM for CYP1A2 and CYP2B6). The other conditions were the same as in the cytochrome P450 inhibition study.
as §2
We analyzed the data with Shimadzu LabSolution LC–MS software. The IC50 values were calculated by WinNonlin software (Pharsight, Mountain View, CA, USA).

[1] abbreviates: human, pooled human liver microsomes, probe amodiaquine.

T1 sequence (P33261 whole entry): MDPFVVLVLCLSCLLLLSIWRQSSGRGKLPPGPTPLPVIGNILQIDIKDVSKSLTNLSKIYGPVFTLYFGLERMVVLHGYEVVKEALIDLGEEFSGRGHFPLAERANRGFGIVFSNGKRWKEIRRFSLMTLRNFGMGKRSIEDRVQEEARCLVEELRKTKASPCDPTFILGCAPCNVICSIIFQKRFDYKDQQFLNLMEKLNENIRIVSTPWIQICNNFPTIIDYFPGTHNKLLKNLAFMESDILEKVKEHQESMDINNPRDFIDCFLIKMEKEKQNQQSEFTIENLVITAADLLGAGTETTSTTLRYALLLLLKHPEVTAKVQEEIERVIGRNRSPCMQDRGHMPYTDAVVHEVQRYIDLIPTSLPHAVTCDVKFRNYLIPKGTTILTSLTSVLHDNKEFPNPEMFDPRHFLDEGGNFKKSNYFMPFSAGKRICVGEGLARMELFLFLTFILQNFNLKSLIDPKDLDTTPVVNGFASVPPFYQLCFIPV

With `O=c1cc(-c2ccc(O)c(-c3c(O)cc4oc(-c5ccc(O)cc5)cc(=O)c4c3O)c2)oc2cc(O)cc(O)c12` [robustaflavone], the IC50 on CYP2C19 amounted to 6.4 µM. Besides, on CYP2C8 (HLMs), the “Mode of Inhibition, CYP2C8 amodiaquine” value is “Noncompetitive” and the Ki was 84 ± 16 nM. In addition, the concentration for half-maximal inhibition (IC50) at CYP2C8 was determined as 83 nM.
For the compound `O=c1cc(-c2ccc(O)c(-c3c(-c4ccc(O)cc4)oc4cc(O)cc(O)c4c3=O)c2)oc2cc(O)cc(O)c12` [taiwaniaflavone], the IC50 at CYP2C19 stood at 5 µM. Moreover, on CYP2C8 (HLMs), the “Mode of Inhibition, CYP2C8 amodiaquine” value is “Noncompetitive” and the Ki came to 142 ± 26 nM. For the same compound, on CYP2C8, the IC50 was determined as 120 nM.
As to `O=C1CC(c2cc(-c3c(O)ccc4c(=O)cc(-c5ccc(O)cc5)oc34)c(O)cc2O)Oc2cc(O)cc(O)c21` (centres unmarked) [selamariscina A], the IC50 at CYP2C19 amounted to 13.3 µM. Besides, at CYP2C8, the “Times stronger CYP2C8 inhibitory potential than amentoflavone” value is “more than 4.5 times” and the half-inhibitory concentration (IC50) stood at 19 nM. Besides, on CYP2C8 (HLMs), the “Mode of Inhibition, CYP2C8 amodiaquine” value was “Noncompetitive” and the inhibition constant (Ki) came out at 18 ± 2 nM. Also, the inhibition at 10 min, 0.5 µM on CYP2C8 (setting [1]) is 92.8%.
As to `CC(C)(O)c1ccccc1CC[C@@H](SCC1(CC(=O)O)CC1)c1cccc(/C=C/c2ccc3ccc(Cl)cc3n2)c1` [montelukast, reference compound], at CYP2C19, the IC50 was more than 50 µM. Also, the “Times weaker CYP2C8 inhibition than selamariscina A” value at CYP2C8 (IC50 comparison at 0.25 mg/mL microsomal protein) was “more than 25 times”. In addition, the inhibition at 10 min, 0.5 µM on CYP2C8 (setting [1]) stood at 52.7%. In addition, the inhibition at 10 min, 5 µM on CYP2C8 (human, pooled human liver microsomes, probe amodiaquine, inhibitor 5 μM, HLMs) was determined as 86.1%.
As to `O=c1cc(-c2ccc(O)c(-c3c(O)cc(O)c4c(=O)cc(-c5ccc(O)cc5)oc34)c2)oc2cc(O)cc(O)c12` [amentoflavone], the IC50 on CYP2C19 was 3.4 µM. On CYP2C8 (HLMs), the “Mode of Inhibition, CYP2C8 amodiaquine” value is “Noncompetitive” and the inhibition constant (Ki) worked out at 83 ± 9 nM. Further, on CYP2C8, the IC50 amounted to 84 nM.
`O=c1cc(-c2ccc(O)cc2)oc2c(-c3c(O)cc(O)c4c(=O)cc(-c5ccc(O)cc5)oc34)c(O)cc(O)c12` [cupressuflavone]: the IC50 at CYP2C19 was determined as 3 µM. At CYP2C8 (HLMs), the “Mode of Inhibition, CYP2C8 amodiaquine” value is given as “Noncompetitive” and the Ki was determined as 103 ± 17 nM. Further, on CYP2C8, the IC50 came to 83 nM.
